Experiments:
[1] = tested on: ADX cells; experiment: Daunorubicin trafficking into the nucleus of ADX cells (confocal microscopy); assay type: cell-based, Chinese hamster; conditions: for percent of ADX cells displaying nuclear daunorubicin: Mean ± 95% CI
Experimental: ADX cells were grown on 4-well slides, 20 uM daunorubicin was added for […], followed by various dose of liposomes containing C16:0 ceramide, sphingomyelin, C16:0 dihydroceramide or phosphatidylcholine for 1 h. Cells were examined under Leica SP-5 inverted confocal microscope. Y axis represents percent of cells with nuclear drug.
ADX cells were grown on 4-well slides. 3.5×10^4 ADX cells were incubated with 20 μM daunorubicin in DMEM HG:F-12 medium without serum. After 2 hours, at which time daunorubicin had reached steady state accumulation in cytoplasmic vesicles, liposomes containing long and very long chain ceramides were added to cells at 0, 1, 2, and 5 μM. After a 1 hour-incubation at 37° C., nuclear localization of daunorubicin was determined by confocal microscopy. Cells were examined under Leica SP-5 inverted confocal microscope. Y axis represents percent of cells with nuclear drug.

[2] = tested on: ADX cells; experiment: MTT cell survival assay in MDR ADX cells; assay type: cell-based, Chinese hamster; conditions: for enhanced cell kill: ADX MDR cells with daunorubicin; for chemosensitization of ADX cells by sphingomyelinase: exogenous sphingomyelinase, data not shown; for EC50: Cricetulus griseus
Experimental: (§1) A, time course of sphingomyelin changes in DC-3F and ADX cells after B. cereus SMase (0.05 U/mL) treatment. B, time course of ceramide generation. C, DC-3F and ADX cells were treated with increasing doses of B. cereus SMase (0-2 U/mL) and cell survival was measured by MTT (3-(4,5-dimethylthiazol-2-yl)-2,5-diphenyltetrazolium bromide) tetrazolium reduction (MTT) assay. D, Cells were seeded in 96-well plates (2×10^3 cells/well) in a 0.1 ml DME:F12 medium containing 5% FBS and cultured at 37° C. for 24 hours before addition of daunorubicin.
(§2) A, DC-3F and ADX cells were treated with increasing doses of daunorubicin. B, DC-3F and ADX cells were incubated with B. cereus SMase (0.0-0.05 U/ml) and treated with daunorubicin for 1 day. Cell survival was measured by MTT assay. Data are from one representative of three independent studies.

[3] = tested on: DC-3F cells; experiment: MTT cell survival assay in parental DC-3F cells; assay type: cell-based, Chinese hamster
Experimental: as §1, §2

[4] = tested on: ADX tumor; experiment: ADX MDR flank tumor response; conditions: 8 mg/kg×3
Experimental: (§3) Tumors were created in the right flanks of athymic nude mice using 5×10^6 DC-3F cells or ADX cells and at tumor volumes of 100-150 mm^3 were treated with Doxorubicin 8 mg/kg i.v. weekly (arrows) for 3 weeks. Tumor volumes were measured daily according to the formula of Kim et al. (Cancer Res 1986: 46, 1120) for 3 months. Collated data in upper panels represent mean±SEM. Data in lower panels represent individual tumor patterns.
5×10^6 ADX cells were implanted into athymic nude mice by s.c. injection. Treatment was started on day 21 when tumor was 100 mm^3. 8 mg/kg Dox (arrows) was injected i.v. every 7 days followed by 1 μmol/mouse liposomal C16:0 ceramide for a total of 3 treatments (total Dox=24 mg/kg, the MTD in mice). Left panel of A) represents individual tumor growth with Dox alone. Right panel of A) represents tumor response when treated with Dox+1 μmol/mouse liposomal ceramide. Panel B is mean tumor growth response of Dox alone and combined treatment.
ADX flank tumors (in athymic Nude-FoxN1 nu mice) were loaded to isotopic steady state for 1 h by systemic administration of Dox (20 mg/kg), and 1 μmol of C16:0 ceramide containing liposomes/mouse was injected i.v. Mice were sacrificed 1 h thereafter, and tumors snap frozen in OCT at −80° C.

[5] = tested on: DC-3F tumor; experiment: DC-3F flank tumor response to doxorubicin; assay type: in vivo, athymic nude mice; conditions: 8 mg/kg×3
Experimental: as §3

[6] = ×4 doses/25 g mouse; cited from earlier work
[7] = Doxorubicin MTD studies in mice; conditions: mouse, in vivo, intravenous, 8 mg/kg
Text: Methods: Liposome Delivery, MTD, PK: Liposomes and free doxorubicin are delivered intravenously and MTD and PK determined in accordance with known protocols.

Row | Molecule | percent of ADX cells displaying nuclear daunorubicin ([1]; ceramide 1 μM) | percent of ADX cells displaying nuclear daunorubicin ([1]; ceramide 2 μM) | percent of ADX cells displaying nuclear daunorubicin ([1]; ceramide 5 μM) | also measured
1 | CCCCCCCCCCCCC/C=C/[C@@H](O)[C@H](CO)NC(C)=O [C2:0] | 7.5 ± 2.5% | 12.5 ± 3.3% | 7.0 ± 1.6% | 
2 | CCCCCCCCCCCCC/C=C/[C@@H](O)[C@H](CO)NC(=O)CCC [C4:0] | 8.0 ± 2.4% | 11.9 ± 2.7% | 13.0 ± 2.1% | 
3 | CCCCCCCCCCCCC/C=C/[C@@H](O)[C@H](CO)NC(=O)CCCCC [C6:0] | 8.8 ± 2.4% | 12.2 ± 2.0% | 16.2 ± 2.3% | 
4 | CCCCCCCCCCCCC/C=C/[C@@H](O)[C@H](CO)NC(=O)CCCCCCC [C8:0] | 11.4 ± 1.9% | 19.8 ± 2.1% | 35.5 ± 2.4% | 
5 | CCCCCCCCCCCCC/C=C/[C@@H](O)[C@H](CO)NC(=O)CCCCCCCCC [C10:0] | 6.8 ± 2.2% | 13.1 ± 2.8% | 20.0 ± 2.4% | 
6 | CCCCCCCCCCCCC/C=C/[C@@H](O)[C@H](CO)NC(=O)CCCCCCCCCCC [C12:0] | 8.9 ± 3.0% | 18.8 ± 3.2% | 22.3 ± 3.1% | 
7 | CCCCCCCCCCCCC/C=C/[C@@H](O)[C@H](CO)NC(=O)CCCCCCCCCCCCC [C14:0] | 7.4 ± 2.4% | 17.6 ± 3.4% | 23.4 ± 3.2% | 
8 | CCCCCCCCCCCCC/C=C/[C@@H](O)[C@H](CO)NC(=O)CCCCCCCCCCCCCCC [C16:0, N-palmitoyl (C16:0) ceramide] | 13.9 ± 1.7% | 24.3 ± 2.0% | 48.3 ± 2.7% | trafficking of daunorubicin into the nucleus ([1]; ADX cells pre-loaded with 20 μM daunorubicin): nuclear transfer occurred only with C16:0 ceramide treatment; enhanced cell kill [2]: 25 fold
9 | N.N.[Cl][Pt][Cl] [cis-platinum] |  |  |  | chemosensitization of ADX cells by sphingomyelinase [2]: chemosensitization of ADX cells was also achieved
10 | COc1cccc2c1C(=O)c1c(O)c3c(c(O)c1C2=O)C[C@@](O)(C(C)=O)C[C@@H]3O[C@H]1C[C@H](N)[C@H](O)[C@H](C)O1 [daunorubicin] |  |  |  | EC50 ([3]; Cricetulus griseus, DC3F, parental DC-3F cells): 0.8 µM; EC50 ([2]; ADX cells treated with increasing doses of exogenous sphingomyelinase): 4 µM; EC50 ([2]; ADX cells, without sphingomyelinase): 92 µM
11 | COc1cccc2c1C(=O)c1c(O)c3c(c(O)c1C2=O)C[C@@](O)(C(=O)CO)C[C@@H]3O[C@H]1C[C@H](N)[C@H](O)[C@H](C)O1 [doxorubicin] |  |  |  | tumor response to doxorubicin [4]: totally resistant; tumor response to doxorubicin [5]: sensitive; published MTD [6]: about 9 mg/kg; MTD at 3 weeks [7]: 24 mg/kg
12 | CN[C@@H]1C[C@H]2O[C@@](C)([C@@H]1OC)n1c3ccccc3c3c4c(c5c6ccccc6n2c5c31)C(=O)NC4 [staurosporine] |  |  |  | chemosensitization of ADX cells by sphingomyelinase [2]: no sensitization was achieved
13 | CC[C@]1(O)C[C@H]2CN(CCc3c([nH]c4ccccc34)[C@@](C(=O)OC)(c3cc4c(cc3OC)N(C=O)[C@H]3[C@@](O)(C(=O)OC)[C@H](OC(C)=O)[C@]5(CC)C=CCN6CC[C@]43[C@@H]65)C2)C1 [vincristine] |  |  |  | chemosensitization of ADX cells by sphingomyelinase [2]: chemosensitization of ADX cells was also achieved
14 | sphingomyelinase: exogenous bacterial sphingomyelinase used to generate endogenous ceramide (protein, UniProt P09599 28-333, looked up) Sphingomyelinase C: DTSTDQNNTLKVMTHNVYMLSTNLYPNWGQSQRADLIGAADYIKNQDVVILNEVFDNSASDRLLGNLKKEYPNQTAVLGRSNGNEWDKTLGSYSSSTPEDGGVAIVSKWPIVEKIQYVFAKGCGPDNLSNKGFVYTKIKKNDRFVHVIGTHLQAEDSMCGKTSPASVRTNQLKEIQDFIKNKNIPNDEYVLFGGDMNVNKINAENNSDSEYASMFKTLHASIPSYTGHTATWDATTNSIAKYNFPDSPAEYLDYIIASKDHANPSFIENKVLQPKSPQWTVTSWLKKYTYDDYSDHYPVAATISMK |  |  |  | effect of sphingomyelinase treatment on DC-3F cells ([3]; daunorubicin sensitivity): unaffected; enhanced cell kill [2]: 25 fold

— patent US10052387B2, “Ceramide reversal of multi-drug resistance” (Memorial Sloan-Kettering Cancer Center, priority 2013, dated 2018)
